We go through 30 compounds from patent publication US12162819B2, “Ionizable lipid compounds” (Beijing Jitai Pharmaceutical Technology Co., Ltd., priority 2022, dated 2024).

Series [1] is described as follows: Particle size and PDI of lipid nanoparticles by dynamic light scattering. It is filed as physicochemical. The conditions noted are these: lipid nanoparticle with the cationic lipid, cholesterol, DSPC, DMG-PEG2000 (50/38.5/10/1.5 mol%), luciferase mRNA, N/P 6. The method, then:
(§1) Lipid nanoparticles were prepared by (1) dissolving and mixing ionizable lipid compounds, cholesterol, phospholipids and polyethylene glycolated lipids in ethanol at (molar percentages) 50%, 38.5%, 10% and 1.5%, respectively; (2) dissolving the mRNA active ingredient in 25 mM sodium acetate solution (pH=4.5); (3) using an automated high-throughput microfluidic system to mix the organic phase containing the lipid mixture and the aqueous phase containing the mRNA component in the flow ratio range of 1:1 to 1:4 at a mixing speed of 10 mL/min to 18 mL/min; (4) the prepared lipid nanoparticles (N/P ratio of 6) were diluted with phosphate buffer solution and the nanoparticle solutions were ultrafiltered to the original preparation volume using ultrafiltration tubes (purchased from Millipore) with a cut-off molecular weight of 30 kDa; and (5) the obtained nanoparticles were filtered through a sterile 0.2 μm filter membrane and then stored in a sealed glass vial at low temperature.
(§2) The particle size and particle size dispersity index (PDI) of the prepared lipid nanoparticles were measured using a Zetasizer Pro (purchased from Malvern Instruments Ltd) and a DynaPro NanoStar (purchased from Wyatt) dynamic light scattering instrument. The degree of RNA encapsulation by lipid nanoparticles was characterized by the Encapsulation Efficiency %, which reflects the degree of binding of lipid nanoparticles to RNA fragments. This parameter was measured by the method of Quant-It™ RiboGreen RNA Assay (purchased from Invitrogen). Lipid nanoparticle samples were diluted in TE buffer (10 mM Tris-HCl, 1 mM EDTA, pH=7.5). A portion of the sample solution was removed, to which 0.5% Triton (Triton X-100) was added, and then allowed to stand at 37° C. for 30 minutes. Immediately after the addition of RIBOGREEN® reaction solution, the fluorescence values were read on a Varioskan LUX multifunctional microplate reader (purchased from Thermofisher) at 485 nm for absorption and 528 nm for emission to give the encapsulation efficiency values.

Series [2] can be described thus: Encapsulation efficiency of lipid nanoparticles, Quant-It RiboGreen RNA Assay. It is filed as physicochemical. As to conditions: lipid nanoparticle with the cationic lipid, luciferase mRNA. The method, then:
as §1, §2

With `CCCCCCCCCCOC(=O)C(C)(C)CCCCCC(CCCCCC(C)(C)C(=O)OCCCCCCCCCC)OC(=O)CCN(C)C` [Compound 1], in series [1], the “Particle size (nm)” value is listed as 80.07 nm and the “Particle size dispersity (PDI)” value was found to be 0.06. Besides, the “Encapsulation efficiency (%)” value in series [2] was 91.54%.

`CCCCCCCCOC(=O)C(C)(C)CCCCCC(CCCCCC(C)(C)C(=O)OCCCCCCCC)OC(=O)CCN(C)C` [Compound 2]: in series [1], the “Particle size (nm)” value was 229.35 nm and the “Particle size dispersity (PDI)” value is reported as 0.03. For the same compound, the “Encapsulation efficiency (%)” value in series [2] was 79.14%.

With `CCCCCCCCCOC(=O)C(C)(C)CCCCCC(CCCCCC(C)(C)C(=O)OCCCCCCCCC)OC(=O)CCN(C)C` [Compound 3], in series [1], the “Particle size (nm)” value was 133.80 nm and the “Particle size dispersity (PDI)” value is recorded as 0.04. Moreover, in series [2], the “Encapsulation efficiency (%)” value stood at 86.88%.

For the compound `CC(C)CCCC(C)CCOC(=O)C(C)(C)CCCCCC(CCCCCC(C)(C)C(=O)OCCC(C)CCCC(C)C)OC(=O)CCN(C)C` (stereo not drawn) [Compound 6], in series [1], the “Particle size (nm)” value is given as 106.18 nm and the “Particle size dispersity (PDI)” value was determined as 0.05. Also, in series [2], the “Encapsulation efficiency (%)” value was 90.26%.

`CC/C=C\CCCCCOC(=O)C(C)(C)CCCCCC(CCCCCC(C)(C)C(=O)OCCCCC/C=C\CC)OC(=O)CCN(C)C` [Compound 7]: in series [1], the “Particle size (nm)” value stood at 203.67 nm and the “Particle size dispersity (PDI)” value is on record as 0.04. In addition, the “Encapsulation efficiency (%)” value in series [2] is on record as 69.51%.

As for `CCCCCCCCCCNC(=O)C(C)(C)CCCCCC(CCCCCC(C)(C)C(=O)NCCCCCCCCCC)OC(=O)CCN(C)C` [Compound 8], in series [1], the “Particle size (nm)” value worked out at 127.82 nm and the “Particle size dispersity (PDI)” value is given as 0.07. Moreover, the “Encapsulation efficiency (%)” value in series [2] was determined as 60.36%.

Consider `CCCCCCCCCNC(=O)C(C)(C)CCCCCC(CCCCCC(C)(C)C(=O)NCCCCCCCCC)OC(=O)CCN(C)C` [Compound 9], for which, in series [1], the “Particle size (nm)” value is given as 352.82 nm and the “Particle size dispersity (PDI)” value is reported as 0.07. Further, the “Encapsulation efficiency (%)” value in series [2] came out at 19.41%.

For `CCCCCCCCCCCCNC(=O)C(C)(C)CCCCCC(CCCCCC(C)(C)C(=O)NCCCCCCCCCCCC)OC(=O)CCN(C)C` [Compound 10], in series [1], the “Particle size (nm)” value is listed as 118.59 nm and the “Particle size dispersity (PDI)” value came to 0.07. In series [2], the “Encapsulation efficiency (%)” value is recorded as 53.83%.

For `CCCCCCCCC(CCCCCCCC)NC(=O)C(C)(C)CCCCCC(CCCCCC(C)(C)C(=O)NC(CCCCCCCC)CCCCCCCC)OC(=O)CCN(C)C` [Compound 11], in series [1], the “Particle size (nm)” value was determined as 46.49 nm and the “Particle size dispersity (PDI)” value is listed as 0.03. In series [2], the “Encapsulation efficiency (%)” value was 95.61%.

For `CCCCCCCCCN(CCCCCCCCC)C(=O)C(C)(C)CCCCCC(CCCCCC(C)(C)C(=O)N(CCCCCCCCC)CCCCCCCCC)OC(=O)CCN(C)C` [Compound 12], in series [1], the “Particle size (nm)” value came to 89.34 nm and the “Particle size dispersity (PDI)” value came out at 0.07. Moreover, the “Encapsulation efficiency (%)” value in series [2] is 85.02%.

For the compound `CCCCCCCCCCOC(=O)C(C)(C)CCCCCC(CCCCCC(C)(C)C(=O)OCCCCCCCCCC)OC(=O)CN(C)C` [Compound 17], in series [1], the “Particle size (nm)” value was determined as 81.43 nm and the “Particle size dispersity (PDI)” value was 0.12. Besides, the “Encapsulation efficiency (%)” value in series [2] is 30.95%.

As for `CCCCCCCCCCOC(=O)C(C)(C)CCCCCC(CCCCCC(C)(C)C(=O)OCCCCCCCCCC)OC(=O)CCCN(C)C` [Compound 18], in series [1], the “Particle size (nm)” value was 161.29 nm and the “Particle size dispersity (PDI)” value is 0.05. Besides, the “Encapsulation efficiency (%)” value in series [2] is listed as 87.86%.

Take `CCCCCCCCOC(=O)C(C)(C)CCCCCC(CCCCCC(C)(C)C(=O)OCCCCCCCC)OC(=O)CCCN(C)C` [Compound 19]: in series [1], the “Particle size (nm)” value is listed as 135.15 nm and the “Particle size dispersity (PDI)” value turned out to be 0.19. The “Encapsulation efficiency (%)” value in series [2] is on record as 67.96%.

As for `CCCCCCCC#CCOC(=O)C(C)(C)CCCCCC(CCCCCC(C)(C)C(=O)OCC#CCCCCCCC)OC(=O)CCCN(C)C` [Compound 23], in series [1], the “Particle size (nm)” value is on record as 151.35 nm and the “Particle size dispersity (PDI)” value is on record as 0.07. The “Encapsulation efficiency (%)” value in series [2] worked out at 70.22%.

Turning to `CCCCCCC#CCCOC(=O)C(C)(C)CCCCCC(CCCCCC(C)(C)C(=O)OCCC#CCCCCCC)OC(=O)CCCN(C)C` [Compound 24], in series [1], the “Particle size (nm)” value stood at 133.72 nm and the “Particle size dispersity (PDI)” value was 0.04. The “Encapsulation efficiency (%)” value in series [2] worked out at 60.98%.

As for `CCCCC#CCCCCOC(=O)C(C)(C)CCCCCC(CCCCCC(C)(C)C(=O)OCCCCC#CCCCC)OC(=O)CCCN(C)C` [Compound 25], in series [1], the “Particle size (nm)” value is recorded as 236.90 nm and the “Particle size dispersity (PDI)” value is on record as 0.06. Moreover, the “Encapsulation efficiency (%)” value in series [2] came to 32.43%.

Turning to `CCCCCCC/C=C\COC(=O)C(C)(C)CCCCCC(CCCCCC(C)(C)C(=O)OC/C=C\CCCCCCC)OC(=O)CCCN(C)C` [Compound 26], in series [1], the “Particle size (nm)” value amounted to 96.69 nm and the “Particle size dispersity (PDI)” value turned out to be 0.05. In addition, the “Encapsulation efficiency (%)” value in series [2] stood at 81.29%.

With `CCCCCC/C=C\CCOC(=O)C(C)(C)CCCCCC(CCCCCC(C)(C)C(=O)OCC/C=C\CCCCCC)OC(=O)CCCN(C)C` [Compound 27], in series [1], the “Particle size (nm)” value was 105.70 nm and the “Particle size dispersity (PDI)” value turned out to be 0.05. Besides, the “Encapsulation efficiency (%)” value in series [2] is given as 88.99%.

Take `CCCCCCCCCCSC(=O)C(C)(C)CCCCCC(CCCCCC(C)(C)C(=O)SCCCCCCCCCC)OC(=O)CCN(C)C` [Compound 33]: in series [1], the “Particle size (nm)” value is on record as 105.84 nm and the “Particle size dispersity (PDI)” value stood at 0.04. Also, the “Encapsulation efficiency (%)” value in series [2] is recorded as 88.67%.

For the compound `CCCCCCCCCCSC(=O)C(C)(C)CCCCCC(CCCCCC(C)(C)C(=O)SCCCCCCCCCC)OC(=O)CCCN(C)C` [Compound 34], in series [1], the “Particle size (nm)” value was 104.71 nm and the “Particle size dispersity (PDI)” value was 0.04. In addition, the “Encapsulation efficiency (%)” value in series [2] is on record as 90.29%.

Regarding `CCCCCCCCCCSC(=O)C(C)(C)CCCCCC(CCCCCC(C)(C)C(=O)SCCCCCCCCCC)OC(=O)CCCCCN(C)C` [Compound 36], in series [1], the “Particle size (nm)” value came out at 88.33 nm and the “Particle size dispersity (PDI)” value was 0.07. Moreover, the “Encapsulation efficiency (%)” value in series [2] was 97.52%.

`CCCCCCCCCCSC(=O)C(C)(C)CCCCCC(CCCCCC(C)(C)C(=O)OCCCCCCCCC)OC(=O)CCCN(C)C` (stereo not drawn) [Compound 40]: in series [1], the “Particle size (nm)” value is on record as 83.90 nm and the “Particle size dispersity (PDI)” value is listed as 0.05. Besides, in series [2], the “Encapsulation efficiency (%)” value was found to be 97.06%.

For the compound `CCCCCCC#CCOC(=O)C(C)(C)CCCCCC(CCCCCC(C)(C)C(=O)OCCCCCCCCC)OC(=O)CCCN(C)C` (stereo not drawn) [Compound 42], in series [1], the “Particle size (nm)” value turned out to be 152.04 nm and the “Particle size dispersity (PDI)” value is listed as 0.07. In addition, the “Encapsulation efficiency (%)” value in series [2] is 71.95%.

Regarding `CCCCCCCCCCOC(=O)C(C)(C)CCCCCC(CCCCCC(C)(C)C(=O)OCCCCCCCCCC)OC(=O)CCN1CCOCC1` [Compound 90], in series [1], the “Particle size (nm)” value worked out at 18.17 nm and the “Particle size dispersity (PDI)” value is 0.05. For the same compound, the “Encapsulation efficiency (%)” value in series [2] is reported as 83.21%.

`CCCCCCCCCCOC(=O)C(C)(C)CCCCCC(CCCCCC(C)(C)C(=O)OCCCCCCCCCC)OC(=O)CN1CCOCC1` [Compound 91]: in series [1], the “Particle size (nm)” value stood at 32.61 nm and the “Particle size dispersity (PDI)” value was found to be 0.05. For the same compound, the “Encapsulation efficiency (%)” value in series [2] was found to be 102.99%.

For `CCCCCCCCCCOC(=O)C(C)(C)CCCCCC(CCCCCC(C)(C)C(=O)OCCCCCCCCCC)OC(=O)CCN1CCCC1` [Compound 92], in series [1], the “Particle size (nm)” value worked out at 107.56 nm and the “Particle size dispersity (PDI)” value came out at 0.05. Besides, in series [2], the “Encapsulation efficiency (%)” value is reported as 91.66%.

Turning to `CCCCCCC/C=C\COC(=O)CC(C)(C)CCCCC(CCCCC(C)(C)CC(=O)OCC(CCCCC)CCCCCCC)OC(=O)CCCN(C)C` (stereo not drawn) [Compound 98], in series [1], the “Particle size (nm)” value turned out to be 107.87 nm and the “Particle size dispersity (PDI)” value was determined as 0.13. In addition, the “Encapsulation efficiency (%)” value in series [2] worked out at 93.28%.

`CCCCCCCCOC(=O)C(C)(C)CCCCCC(CCCCCC(C)(C)C(=O)OCCCCCCCC)OC(=O)C1CCN(C(C)C)CC1` [Compound 101]: in series [1], the “Particle size (nm)” value was determined as 152.45 nm and the “Particle size dispersity (PDI)” value was 0.06. In addition, in series [2], the “Encapsulation efficiency (%)” value was 76.09%.

With `CCCCCCCCCOC(=O)C(C)(C)CCCCCC(CCCCCC(C)(C)C(=O)OCCCCCCCCC)OC(=O)C1CCN(C)CC1` [Compound 102], in series [1], the “Particle size (nm)” value is reported as 102.18 nm and the “Particle size dispersity (PDI)” value was 0.03. Moreover, in series [2], the “Encapsulation efficiency (%)” value is 90.03%.

Regarding `CCCCCCCCCOC(=O)C(C)(C)CCCCCC(CCCCCC(C)(C)C(=O)OCCCCCCCCC)OC(=O)C1CCN(C(C)C)CC1` [Compound 103], in series [1], the “Particle size (nm)” value amounted to 148.67 nm and the “Particle size dispersity (PDI)” value is 0.04. The “Encapsulation efficiency (%)” value in series [2] amounted to 90.97%.
